From publication PMC9042912, “T cell receptor and IL-2 signaling strength control memory CD8^+ T cell functional fitness via chromatin remodeling” (Nature Communications, 2022)
Where “and” joins values, the source holds several entries; their conditions need not be identical. Equal entries are not always repeated. Where two headings read alike, the source gives them in different places. No end group written: not given here.

Key:
OT-I cells = type: in vivo, mouse; settings: for % Il2ra mut/mut among OT-I / % WT among OT-I: individual values
H2-K^b = target: T1, H2-K^b (Mus musculus, UniProt P01901); assay: cell-based
T1 construct: RMA-S cells were added per well to a 96-well flat-bottom plate and incubated at 30 °C overnight; endogenous in cells; host or cells: RMA-S cells (TAP-deficient), obtained from Dr. Steve Porcelli
T1 sequence (P01901 22-369): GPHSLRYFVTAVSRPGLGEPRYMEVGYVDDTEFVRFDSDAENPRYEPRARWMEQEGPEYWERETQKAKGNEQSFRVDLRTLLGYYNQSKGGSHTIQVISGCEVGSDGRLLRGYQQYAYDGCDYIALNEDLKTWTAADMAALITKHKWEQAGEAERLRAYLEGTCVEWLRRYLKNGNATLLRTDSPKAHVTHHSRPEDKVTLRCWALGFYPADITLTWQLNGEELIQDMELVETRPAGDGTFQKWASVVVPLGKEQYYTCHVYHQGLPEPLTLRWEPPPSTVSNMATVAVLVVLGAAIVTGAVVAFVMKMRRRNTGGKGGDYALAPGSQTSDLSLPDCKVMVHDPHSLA
T1 sequence (P01887 21-119 partner): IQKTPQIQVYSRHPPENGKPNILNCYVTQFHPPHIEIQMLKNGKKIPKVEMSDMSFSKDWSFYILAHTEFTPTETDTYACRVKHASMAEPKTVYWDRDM

[1] = test system: OT-I, gBT-I, P14, L9.6 T cells; settings: mouse
H2-D^b = H2-D^b (Mus musculus, UniProt P01899); type: cell-based
H2-D^b, sequence (P01899 25-362, one chain of several): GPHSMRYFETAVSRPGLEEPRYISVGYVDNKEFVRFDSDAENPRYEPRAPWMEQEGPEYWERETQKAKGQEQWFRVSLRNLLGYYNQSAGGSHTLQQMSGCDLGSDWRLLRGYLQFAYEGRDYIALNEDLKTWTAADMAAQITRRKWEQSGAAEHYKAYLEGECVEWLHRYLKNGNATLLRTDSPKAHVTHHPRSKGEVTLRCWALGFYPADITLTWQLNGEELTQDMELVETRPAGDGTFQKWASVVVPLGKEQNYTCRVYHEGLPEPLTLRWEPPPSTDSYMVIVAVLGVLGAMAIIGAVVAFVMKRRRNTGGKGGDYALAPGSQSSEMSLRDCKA

diphtheria toxin [DT]
decrease of primary OT-I cell expansion (OT-I cells; CD11c+ cell depletion 2 days after Lm-Ova infection): ~ 50%
% Il2ra mut/mut among OT-I (OT-I cells; Memory + DT): 29.30% and 45.50% and 51.90% and 25.10% and 25.90% and 50.30% and 56.40%
% WT among OT-I (OT-I cells; Memory + DT): 70.10% and 54.40% and 47.80% and 74.30% and 73.60% and 49.50% and 43.40%
% Il2ra mut/mut among OT-I (OT-I cells; Primary + DT): 4.26% and 7.74% and 13.10% and 8.93% and 11.40% and 29.60% and 21.10% and 24.20% and 24.80% and 4.23%
% WT among OT-I (OT-I cells; Primary + DT): 91.80% and 86.30% and 90.50% and 87.80% and 89.00% and 69.30% and 77.20% and 73.40% and 64.60% and 95.20% and 95.30%
% OT-I (OT-I cells; depletion of CD11c+ cells in CD11c-DTR mice, compared with control group, each value one mouse (Suppl. Fig. 4B)): 4.98% and 8.05% and 8.87% and 13.60%

CC[C@H](C)[C@H](NC(=O)[C@@H](NC(=O)[C@@H](N)CO)[C@@H](C)CC)C(=O)N[C@@H](CC(N)=O)C(=O)N[C@@H](Cc1ccccc1)C(=O)N[C@@H](CCC(=O)O)C(=O)N[C@@H](CCCCN)C(=O)N[C@@H](CC(C)C)C(=O)O [N4]
Kd (H2-K^b): 111 nM

SIITFEKL [T4]
Kd (H2-K^b): 59 nM

SSIEFARL [gB498-505]
Kd (H2-K^b): 32 nM

SIIQFEKL [Q4]
Kd (H2-K^b): 65 nM

KAVYNFATC [GP33-41]
duration for which the Lm-expressed epitope induces naïve T cell proliferation in vivo [1]: ~ 2 days
formation of stable complexes with D^b (H2-D^b): form stable MHC class I complexes
